In patent publication US12448605B2, “Encapsulation and cardiac differentiation of hiPSCs in 3D PEG-fibrinogen hydrogels” (Auburn University, priority 2013, dated 2025):

System: spontaneously contracting 3D cultured CMs
Test: Calcium transient and spontaneous beating rate of dissociated, un-paced CMs in response to isoproterenol
Type: cell-based, human
Method: To immobilize cells for proper calcium transient acquisition, glass coverslips (21 mm, No. 1, Fisher Scientific) were coated with PDMS using a WS-400-6NPP spin coater (Laurell Technologies Corporation). Briefly, SLYGARD 184 silicone elastomer curing agent was mixed with SLYGARD 184 elastomer base (Dow Corning Corporation) at a ratio of 1:10, applied on the glass coverslips and evenly spin coated to obtain PDMS coated coverslips. These were dried at 60° C. for several hours, sterilized using 70% ethanol, and further dried under sterile conditions for at least 24 h. In order for successful single CM attachment, 1× fibronectin in ice cold ultrapure water was applied on PDMS coated coverslips and incubated for at least one hour at room temperature.
Day 14 2D monolayers and 3D tissues were dissociated using 0.25% trypsin (EDTA) at 37° C. for 5 and 8 min, respectively. Cells were singularized by pipetting, added to RPMI20 media49, and centrifuged for 5 min at 200 g. Singularized cells were resuspended in RPMI20+5 μM ROCK inhibitor and transferred onto fibronectin coated PDMS glass coverslips. Cells were incubated for 48 h to ensure uniform cell attachment. Media was then switched to RPMI/B27 and cells maintained for 3 to 5 days. CM calcium transient recordings were obtained using an IonOptix Myocyte Calcium and Contractility Recording System. Samples were incubated in 5 μM Fura-2AM dye (Molecular Probes) in 37° C. warm Tyrode's solution (1.8 mM CaCl2, 5 mM glucose, 5 mM HEPES, 1 mM MgCl2, 5.4 mM KCl, 135 mM NaCl, and 0.33 mM NaH2PO4, pH 7.4) for 30 mM CMs were paced at frequencies from 0.5 to 2.0 Hz (0.5 Hz increments) and stimulated at 30 V. Calcium transient duration at 50% and 80% time to baseline was recorded. In addition to responses to outside electrical stimuli, response to 0.5 μM isoproterenol was studied on un-paced CMs.

[1] = 0.5 μM isoproterenol, spontaneously contracting 3D cultured CMs, vs pre-isoproterenol, n=3, P<0.05

## CC(C)NCC(O)c1ccc(O)c(O)c1 (stereo not shown) [isoproterenol]
[1]
  calcium transient time to baseline 50%: significantly shortened
  calcium transient time to baseline 80%: significantly shortened
0.5 μM isoproterenol, un-paced day 14 3D cultured CMs, pre-isoproterenol 33 beats per min
  spontaneous beating rate (post isoproterenol): 60 beats per min
Spontaneously contracting 3D cultured CMs, response to isoproterenol
  spontaneous beating rate (change in words): increased
